{"source": "patent US10947251B2", "about": "“Therapeutic compounds and methods of use thereof” (GENENTECH, INC., priority 2018, dated 2021)", "key": {"[1]": {"molecular_target": "T1, hNav1.7 (Homo sapiens (Human), UniProt Q15858)", "experiment": "Tritiated compound binding to membranes from cells heterologously expressing hNav1.7 and the β1 subunit (LBA)", "settings": "competitive binding vs [3H]compound, membranes with hNav1.7 and β1 subunit; read-out: Nav1.7 LBA EVO IC50", "protocol": "Example 39A. Tritiated Compound Binding to Membranes Isolated from Cells that Heterologously Express hNav1.7 and the β1 Subunit\nPreparation of membranes containing recombinantly expressed sodium channels: Frozen recombinant cell pellets were thawed on ice and diluted to 4 times the cell pellet weight with ice cold 50 mM Tris HCl, pH 7.4 buffer. The cell suspensions were homogenized on ice using a motorized glass dounce homogeniser. Homogenates were further diluted 8.4 times with ice cold 50 mM Tris HCl, pH 7.4 buffer and then centrifuged at 200×g at 4° C. for 15 min. The supernatants were collected and centrifuged at 10000×g at 4° C. for 50 min. The pellets were then re-suspended in 100 mM NaCl, 20 mM Tris HCl, pH 7.4 buffer containing 1% v/v protease inhibitors (Calbiochem) and re-homogenized on ice. The homogenized membranes were then processed through a syringe equipped with a 26 gauge needle. Protein concentrations were determined by Bradford Assay and the membranes were stored at −80° C.\nSaturation experiments. A competitive NaV1.7 inhibitor having a methyl group was tritiated. Three tritiums were incorporated in place of methyl hydrogens to generate [^3H]compound. Binding of this radioligand was performed in 5 mL borosilicate glass test tubes at room temperature. Binding was initiated by adding membranes to increasing concentrations of [^3H]compound in 100 mM NaCl, 20 mM Tris HCl, pH 7.4 buffer containing 0.01% w/v bovine serum albumin (BSA) for 18 h. Non-specific binding was determined in the presence of 1 μM unlabeled compound. After 18 h, the reactants were filtered through GF/C glass fiber filters presoaked in 0.5% w/v polyethylene imine. Filters were washed with 15 mL ice cold 100 mM NaCl, 20 mM Tris HCl, pH7.4 buffer containing 0.25% BSA to separate bound from free ligand. [^3H]compound bound to filters was quantified by liquid scintillation counting.\nBinding reactions were performed in 96-well polypropylene plates at room temperature for 18 h. In 360 μL, membranes were incubated with 100 pM [^3H]compound and increasing concentrations of Test Compound. Non-specific binding was defined in the presence of 1 μM unlabeled compound. Reactions were transferred and filtered through 96-well glass fiber/C filter plates presoaked with 0.5% polyethylene imine. The filtered reactions were washed 5 times with 200 μL ice cold buffer containing 0.25% BSA. Bound radioactivity was determined by liquid scintillation counting.\nFor saturation experiments, non-specific binding was subtracted from total binding to provide specific binding and these values were recalculated in terms of pmol ligand bound per mg protein. Saturation curves were constructed and dissociation constants were calculated using the single site ligand binding model: Beq=(Bmax*X)/(X+Kd), where Beq is the amount of ligand bound at equilibrium, Bmax is the maximum receptor density, Kd is the dissociation constant for the ligand, and X is the free ligand concentration. For competition studies percent inhibition was determined and IC50 values were calculated using a 4 parameter logistic model (% inhibition=(A+((B−A)/(1+((x/C)^D)))) using XLfit, where A and B are the maximal and minimum inhibition respectively, C is the IC50 concentration and D is the (Hill) slope.\nExample 39B. Tritiated Compound Binding to Membranes Isolated from Cells that Heterologous Express hNav1.7 and the β1 Subunit\nFollowing the procedure described in Example 39A, and making modifications as required to: centrifuge supernatants at 100000×g instead of 10000×g; re-suspend pellets in a buffer containing 0.01% BSA in addition to 100 mM NaCl, 20 mM Tris HCl, pH 7.4 buffer, and 1% v/v […]; and storing membranes at −80° C. in single use aliquots instead of pooled.\nSaturation experiments: Following the procedure described in Example 243A, and making modifications as required to incubate [3H]compound for 3 hours instead of 18 hours. […]"}, "[2]": {"molecular_target": "T1, hNav1.7", "experiment": "Electrophysiological assay (EP), voltage clamp on Syncropatch 384PE", "format": "cell-based", "settings": "CHO cells expressing Nav1.7, holding potential −50 mV, 7.5 min compound incubation; read-out: EP_SP hNav1.7 EVO IC50", "from_the_text": "Example 39C. Electrophysiological Assay (EP) (In Vitro Assay)\nPatch voltage clamp electrophysiology allows for the direct measurement and quantification of block of voltage-gated sodium channels (NaV's), and allows the determination of the time- and voltage-dependence of block which has been interpreted as differential binding to the resting, open, and inactivated states of the sodium channel (Hille, B., Journal of General Physiology (1977), 69: 497-515).\nThe following voltage clamp electrophysiology studies were performed on representative compounds using cells heterologously expressing Nav1.7 or Nav1.5 channels. cDNAs for Nav1.7 (NM_002977) and Nav1.5 (AC137587) were stably expressed in Chinese Hamstr Ovary (CHO) cells and CHL (Chinese Hamster Lung) cells respectively. Sodium currents were measured in the whole-cell configuration using Syncropatch 384PE (Nanlon Technologies, Germany). 1NPC®-384 chips with custom medium resistance and single hole mode are used. Internal solution consists of (in mM): 110 […], 10 CsCl, 20 EGTA, and 10 Hepes (pH adjusted to 7.2); and external solution contains (in mM): 60 NMDG, 80 NaCl, 4 KCl, 1 MgCl2, 2 CaCl2, 2 D-Glucose monohydrate, 10 Hepes (pH adjusted to 7.4 with NaOH).\nAfter system flushing, testing compounds are dissolved in external solution containing 0.1% Pluronic F-127. The chip is moved into the measuring head and the instrument primes the chip with external and internal solutions. 10 l cells are added to the chip from a cell hotel, and a negative pressure of −50 mBar is applied to form a seal. Following treatment with seal enhancer solution and wash-off with external solution, negative pressure of −250 mbar is applied for 1 second to achieve the whole-cell configuration, followed by three washing steps in external solution. 20 µl of compounds is added to 40 µl in each well (1:3 dilution of compounds), and after mixing, 20 l is removed so the volume is retained at 40 ul. After approximately 13 minutes recordings, 20 µl/well of 2 uM TTX, or 333 uM Tetracaine (for Nav1.5) is added to achieve full block.\nFor voltage protocol, an holding potential of −50 mV is applied during the whole experiment. A depolarizing step is applied to −10 mV for 10 ms, followed by a hyperpolarization step to −150 mV for 20 ms to allow channel recovery from inactivation. A second depolarizing step is applied from −150 mV to −10 mV for 10 ms, where currents were measured to derive blocking effects of compounds. Inhibition is determined based on 7.5 min of compound incubation."}}}
{"smiles": "COc1cc(-c2cccc(OC(F)(F)F)c2)c(F)cc1N1C(=O)CO[C@H]2CN(S(=O)(=O)Nc3ccon3)CC[C@@H]21", "note": "[Example 30, (4aS,8aS)-1-(2-fluoro-5-methoxy-3′-(trifluoromethoxy)-[1,1′-biphenyl]-4-yl)-N-(isoxazol-3-yl)-2-oxohexahydro-H-pyrido[3,4-b][1,4]oxazine-6(7H)-sulfonamide]", "values": [{"measurement": "IC50", "setting": "[1]", "result": 0.0356, "unit": "µM"}, {"measurement": "IC50", "setting": "[2]", "result": 0.00235, "unit": "µM"}]}
{"smiles": "COc1cc(-c2cc(F)cc(C(F)(F)F)c2)c(F)cc1N1C(=O)CO[C@@H]2CN(S(=O)(=O)Nc3ccon3)CC[C@H]21", "note": "[Example 5, (4aR,8aR)-1-(2,3′-difluoro-5-methoxy-5′-(trifluoromethyl)-[1,1′-biphenyl]-4-yl)-N-(isoxazol-3-yl)-2-oxohexahydro-1H-pyrido[3,4-b][1,4]oxazine-6(7H)-sulfonamide]", "values": [{"measurement": "IC50", "setting": "[1]", "result": 0.079, "unit": "µM"}, {"measurement": "IC50", "setting": "[2]", "result": 0.00279, "unit": "µM"}]}
{"smiles": "COc1cc(-c2cccc(Cl)c2)c(F)cc1N1C(=O)CO[C@@H]2CN(S(=O)(=O)Nc3ccon3)CC[C@H]21", "note": "[Example 13, (4aR,8aR)-1-(3′-chloro-2-fluoro-5-methoxy-[1,1′-biphenyl]-4-yl)-N-(isoxazol-3-yl)-2-oxohexahydro-1H-pyrido[3,4-b][1,4]oxazine-6(7H)-sulfonamide]", "values": [{"measurement": "IC50", "setting": "[1]", "result": 0.471, "unit": "µM"}, {"measurement": "IC50", "setting": "[2]", "result": 0.0117, "unit": "µM"}]}
{"smiles": "COc1cc(-c2cccc(C(F)(F)F)c2F)c(F)cc1N1C(=O)CO[C@@H]2CN(S(=O)(=O)Nc3ccon3)CC[C@H]21", "note": "[Example 11, (4aR,8aR)-1-(2,2′-difluoro-5-methoxy-3′-(trifluoromethyl)-[1,1′-biphenyl]-4-yl)-N-(isoxazol-3-yl)-2-oxohexahydro-1H-pyrido[3,4-b][1,4]oxazine-6(7H)-sulfonamide]", "values": [{"measurement": "IC50", "setting": "[1]", "result": 0.23, "unit": "µM"}, {"measurement": "IC50", "setting": "[2]", "result": 0.0112, "unit": "µM"}]}
{"smiles": "COc1cc(-c2cccc(C(F)(F)F)c2)c(F)cc1N1C(=O)CC[C@@H]2CN(S(=O)(=O)Nc3ccon3)CC[C@@H]21", "note": "[Example 38, (4aR,8aS)-1-(2-fluoro-5-methoxy-3′-(trifluoromethyl)-[1,1′-biphenyl]-4-yl)-N-(isoxazol-3-yl)-2-oxooctahydro-1,6-naphthyridine-6(2H)-sulfonamide]", "values": [{"measurement": "IC50", "setting": "[1]", "result": 0.641, "unit": "µM"}, {"measurement": "IC50", "setting": "[2]", "result": 0.0107, "unit": "µM"}]}
{"smiles": "COc1cc(-c2cccc(Cl)c2)c(F)cc1N1C(=O)CO[C@H]2CN(S(=O)(=O)Nc3ccon3)CC[C@@H]21", "note": "[Example 14, (4aS,8aS)-1-(3′-chloro-2-fluoro-5-methoxy-[1,1′-biphenyl]-4-yl)-N-(isoxazol-3-yl)-2-oxohexahydro-1H-pyrido[3,4-b][1,4]oxazine-6(7H)-sulfonamide]", "values": [{"measurement": "IC50", "setting": "[1]", "result": 0.332, "unit": "µM"}, {"measurement": "IC50", "setting": "[2]", "result": 0.00721, "unit": "µM"}]}
{"smiles": "COc1nc(-c2cccc(C(F)(F)F)c2)c(F)cc1N1C(=O)CO[C@@H]2CN(S(=O)(=O)Nc3ccon3)CC[C@H]21", "note": "[Example 21, (4aR,8aR)-1-(5-fluoro-2-methoxy-6-(3-(trifluoromethyl)phenyl)pyridin-3-yl)-N-(isoxazol-3-yl)-2-oxohexahydro-1H-pyrido[3,4-b][1,4]oxazine-6(7H)-sulfonamide]", "values": [{"measurement": "IC50", "setting": "[1]", "result": 2, "unit": "µM"}, {"measurement": "IC50", "setting": "[2]", "result": 0.0475, "unit": "µM"}]}
{"smiles": "COc1cc(-c2cccc(C(F)(F)F)c2)c(F)cc1N1C(=O)OC[C@H]2CN(S(=O)(=O)Nc3ccon3)CC[C@@H]21", "note": "[Example 34, (4aS,8aS)-1-(2-fluoro-5-methoxy-3′-(trifluoromethyl)-[1,1′-biphenyl]-4-yl)-N-(isoxazol-3-yl)-2-oxohexahydro-2H-pyrido[4,3-d][1,3]oxazine-6(4H)-sulfonamide]", "values": [{"measurement": "IC50", "setting": "[1]", "result": 2, "unit": "µM"}, {"measurement": "IC50", "setting": "[2]", "result": 0.196, "unit": "µM"}]}
{"smiles": "COc1cc(-c2cc(C(F)(F)F)ccc2F)c(F)cc1N1C(=O)CO[C@@H]2CN(S(=O)(=O)Nc3ccon3)CC[C@H]21", "note": "[Example 7, (4aR,8aR)-1-(2,2′-difluoro-5-methoxy-5′-(trifluoromethyl)-[1,1′-biphenyl]-4-yl)-N-(isoxazol-3-yl)-2-oxohexahydro-1H-pyrido[3,4-b][1,4]oxazine-6(7H)-sulfonamide]", "values": [{"measurement": "IC50", "setting": "[1]", "result": 0.167, "unit": "µM"}, {"measurement": "IC50", "setting": "[2]", "result": 0.00576, "unit": "µM"}]}
{"smiles": "COc1cc(-c2cccc(C(F)F)c2)c(F)cc1N1C(=O)CO[C@H]2CN(S(=O)(=O)Nc3ccon3)CC[C@@H]21", "note": "[Example 16, (4aS,8aS)-1-(3′-(difluoromethyl)-2-fluoro-5-methoxy-[1,1′-biphenyl]-4-yl)-N-(isoxazol-3-yl)-2-oxohexahydro-1H-pyrido[3,4-b][1,4]oxazine-6(7H)-sulfonamide]", "values": [{"measurement": "IC50", "setting": "[1]", "result": 1.39, "unit": "µM"}, {"measurement": "IC50", "setting": "[2]", "result": 0.0495, "unit": "µM"}]}
{"smiles": "COc1cc(-c2cccc(C(F)(F)F)c2)cc(F)c1N1C(=O)CO[C@H]2CN(S(=O)(=O)Nc3ccon3)CC[C@@H]21", "note": "[Example 20, (4aS,8aS)-1-(3-fluoro-5-methoxy-3′-(trifluoromethyl)-[1,1′-biphenyl]-4-yl)-N-(isoxazol-3-yl)-2-oxohexahydro-1H-pyrido[3,4-b][1,4]oxazine-6(7H)-sulfonamidede]", "values": [{"measurement": "IC50", "setting": "[1]", "result": 2, "unit": "µM"}, {"measurement": "IC50", "setting": "[2]", "result": 0.0398, "unit": "µM"}]}
{"smiles": "N#Cc1cc(-c2cccc(C(F)(F)F)c2)c(F)cc1N1C(=O)CO[C@@H]2CN(S(=O)(=O)Nc3ccon3)CC[C@H]21", "note": "[Example 23, (4aR,8aR)-1-(5-cyano-2-fluoro-3′-(trifluoromethyl)-[1,1′-biphenyl]-4-yl)-N-(isoxazol-3-yl)-2-oxohexahydro-1H-pyrido[3,4-b][1,4]oxazine-6(7H)-sulfonamide]", "values": [{"measurement": "IC50", "setting": "[1]", "result": 2, "unit": "µM"}, {"measurement": "IC50", "setting": "[2]", "result": 0.0501, "unit": "µM"}]}
